Assay [1] deals with osteogenic protein-1 (OP-1) gene expression. The assay is described as follows: qTR-PCR analyses of harvested biomaterial constructs. It is filed as in vivo. Conditions: harvested constructs pre-treated with 0.24 mg zoledronate; Papio ursinus rectus abdominis. The source says:
It is important to note that in specimens with bone formation by induction there is always expression of the OP-1 gene, i.e. there is a direct correlation between the induction of bone and the expression of the OP-1 gene.

The subject of assay [2] is rectus abdominis muscle of Papio ursinus. The assay can be described thus: Heterotopic implantation of macroporous 7% HA/CC constructs in rectus abdominis muscle, histological evaluation of bone induction. The note with it: coral-derived 7% HA/CC macroporous constructs pre-loaded with 0.24 mg zoledronate; intramuscular (rectus abdominis) implantation in adult Papio ursinus; harvested 90 days after implantation. Type of assay: in vivo. On the procedure: Topographical modification of the implanted constructs may be of the utmost importance for the differentiation of myoblastic/myoendothelial and/or perivascular/endothelial stem cells into osteoblastic-like cells. In order to study the effect of the osteoclastic activity on cell differentiation and the induction of bone formation, samples of solid porous construct compositions, typically macroporous hydroxyapatites were pre-loaded with 0.24 mg of the osteoclastic inhibitor biphosphonate zoledronate (Zometa®). Samples with and without zoledronate were then implanted in the rectus abdominis muscle of Papio ursinus.
A biomaterial to act, in use, as a platform for bone growth induction and/or bone growth was prepared. Said solid porous composition in the form of macroporous hydroxyapatite replicas of the calcium carbonate exoskeletal microstructure of the coral genus Goniopora was prepared by hydrothermal chemical exchange with phosphate [(5) Ripamonti, U. J Bone Joint Surg Am 1991; 73:692-703; (6) Ripamonti U, Richter P W, Nilen R W N, Renton L., J Cell Mol Med 2008; 12:1029-48., (7) Shors EC, Orthop Clin North Am 1999:30:599-613; (8) Ripamonti U, van den Heever B, van Wyk J., Matrix 1993;13:491-502; (9) Ripamonti, R. M. Klar, L. F. Renton, C Ferretti., Biomaterials, 31, 6400-6410 (2010). The entirety of which are incorporated by reference herein]. […]

Entries after “also recorded” stand apart in the source; their conditions may differ.

`O=P(O)(O)C(O)(Cn1ccnc1)P(=O)(O)O` [zoledronate]: the “osteogenic protein-1 (OP-1) gene expression” value in assay [1] is on record as “dramatic reduction”. Moreover, the “induction of bone formation / differentiation of bone within macroporous spaces (histology)” value in assay [2] is reported as “lack of bone induction and/or bone growth; also recorded: either did not induce the differentiation of bone at all, or the induction was considerably inhibited; also recorded: In two specimens, the spontaneous induction of bone formation was altogether absent; also recorded: minor amounts of bone had formed by induction at the periphery; also recorded: very limited bone formation”.
